Our source for the inhibition and EC50 values is US20230011571A1, “SMALL MOLECULE FURIN INHIBITORS FOR TREATING INFECTIOUS DISEASES” (BP Asset V, Inc., priority 2019, published 2023).

Holding throughout (type): cell-based
One experiment concerns Marburg virus (MARV). The experiment is described as follows: organism not typed. Conditions: Vero, 72 h, read-out: Percent viral inhibition MARV.
In experiment [1] the test system is Chikungunya (S27; Vero 76). The experiment in a line: In vitro viral inhibition, Chikungunya. Conditions: Chikungunya virus.
For experiment [2], the system named is Respiratory syncytial virus (A2; RD). The experiment is described as follows: In vitro viral inhibition, Respiratory syncytial virus. As to conditions: human respiratory syncytial virus. The procedure:
(§1) In vitro studies of the antiviral activity were also carried out for several viruses using Example 369.

For experiment [3], the system named is Venezuelan equine encephalitis (TC-83; Vero 76). The experiment is described as follows: cells.
Another experiment deals with dengue virus (DENV). The experiment in a line: microbe, parasite or virus in culture. Conditions: Dengue virus, Vero, 120 h, read-out: Percent viral inhibition DENY.
The subject of experiment [4] is Japanese encephalitis virus (SA-14; Vero 76). The experiment is described as follows: In vitro viral inhibition, Japanese encephalitis virus.
For the next experiment, the system named is Measles (CC; Vero 76). The experiment is described as follows: In vitro viral inhibition, Measles. Conditions: Measles morbillivirus, strain CC, Vero 76 cells. Here is the method:
as §1

The subject of experiment [5] is Yellow Fever (YFV 17D; Huh7). The experiment in a line: microbe, parasite or virus in culture.
In experiment [6] the test system is Powassan virus (LB; BHK-21). The experiment in a line: microbe, parasite or virus in culture.
Experiment [7] deals with Eastern equine encephalitis (FL39-939; Vero 76). The experiment in a line: cells.
Experiment [8] has as its system Usutu virus (TC-508; Vero 76). The experiment is described as follows: In vitro viral inhibition, Usutu virus. Conditions: strain TC-508, Vero 76 cells. Here is the method: as §1
Experiment [9] relates to Dengue Virus 2 (New Guinea C; Huh7). The experiment in a line: In vitro viral inhibition, Dengue Virus 2.
Experiment [10] has as its system Chikungunya virus (CHIKV). The experiment is described as follows: microbe, parasite or virus in culture. Conditions: Chikungunya virus, Vero, 48 h, read-out: Percent viral inhibition CHKV.
The test system of experiment [11] is Western equine encephalitis (California; Vero 76). The experiment in a line: cells.
For experiment [12], the system named is Mayaro virus (BE AR 505411; Vero 76). The experiment in a line: In vitro viral inhibition, Mayaro virus. As to conditions: strain BE AR 505411, Vero 76 cells. Here is the method:
as §1

[13] abbreviates: Vero 76, read-out: EC50 (ug/mL) (Neutral Red (NR) Assay).
Setting [14] is: Vero 76, read-out: EC50 (ug/mL) (VIS Drug Assay).
The mark [15] stands for this setting: Neutral Red assay, read-out: EC50 (ug/mL) (Neutral Red (NR) Assay).
[16] abbreviates: VIS assay, read-out: EC50 (ug/mL) (VIS Drug Assay).
The mark [17] stands for this setting: Huh-7, read-out: EC50 (ug/mL) (Neutral Red (NR) Assay).
The mark [18] stands for this setting: Huh-7, read-out: EC50 (ug/mL) (VIS Drug Assay).

Values after ≈ are worked out from the molar mass of the structure shown. Read-outs that look alike come from different tables or passages of the source. A value given as a limit tells only on which side of the number the result lay.

For orientation: inhibition means the percentage by which the read-out fell short of the control. Take `CC(=O)NCC1CCN(Cc2cc(Oc3cnc(N4CCN(CCC(C)C(=O)O)CC4)nc3)nc(-c3cc(Cl)cc(Cl)c3)c2)CC1` (stereo not drawn) [Example 369, 4-(4-(5-((4-((4-(acetamidomethyl)piperidin-1-yl)methyl)-6-(3,5-dichlorophenyl)pyridin-2-yl)oxy)pyrimidin-2-yl)piperazin-1-yl)-2-methylbutanoic acid]: the values for the inhibition at 1 µM (in the experiment with Marburg virus (MARV); with dengue virus (DENV); in experiment [10]) were 47.1%, 33.3% and 32.9%, respectively. The EC50 in experiment [1] (setting [13]) amounted to 0.18 µg/mL (≈ 0.268 µM); in experiment [1] (setting [14]) it was 0.12 µg/mL (≈ 0.179 µM); in [2] (read-out: EC50 (ug/mL) (Neutral Red (NR) Assay)), 0.3 µg/mL (≈ 0.447 µM); in [2] (read-out: EC50 (ug/mL) (VIS Drug Assay)), 28 µg/mL (≈ 41.8 µM); in [3] (setting [13]), 0.77 µg/mL (≈ 1.15 µM); in experiment [3] (setting [14]), 0.55 µg/mL (≈ 0.82 µM). The EC50 is 3 µg/mL (≈ 4.47 µM) in experiment [4] (setting [13]); 0.32 µg/mL (≈ 0.477 µM) in experiment [4] (setting [14]); less than 0.1 µg/mL in the experiment with Measles (CC; Vero 76) (setting [15]); less than 0.1 µg/mL in the experiment with Measles (CC; Vero 76) (setting [16]); 0.18 µg/mL (≈ 0.268 µM) in [5] (setting [17]); 0.18 µg/mL (≈ 0.268 µM) in [5] (setting [18]). The EC50 in [6] (BHK-21, read-out: EC50 (ug/mL) (Neutral Red (NR) Assay)) is less than 0.1 µg/mL; in experiment [6] (BHK-21, read-out: EC50 (ug/mL) (VIS Drug Assay)) it was less than 0.1 µg/mL; in experiment [7] (setting [13]), less than 0.1 µg/mL; in experiment [7] (setting [14]), less than 0.1 µg/mL; in experiment [8] (setting [15]), 5.8 µg/mL (≈ 8.65 µM); in experiment [8] (setting [16]) it was 2.7 µg/mL (≈ 4.03 µM). In addition, the EC50 was less than 0.1 µg/mL in [9] (setting [17]); less than 0.1 µg/mL in experiment [9] (setting [18]); less than 0.1 µg/mL in [11] (setting [13]); less than 0.1 µg/mL in experiment [11] (setting [14]); 0.28 µg/mL (≈ 0.418 µM) in experiment [12] (setting [15]); 0.32 µg/mL (≈ 0.477 µM) in experiment [12] (setting [16]).

In the case of `CN1CCN(c2ncc(Oc3cc(CN4CCO[C@H](CCO)CC4)cc(-c4cc(Cl)cc(Cl)c4)n3)cn2)CC1` [Example 153, (S)-2-(4-((2-(3,5-dichlorophenyl)-6-((2-(4-methylpiperazin-1-yl)pyrimidin-5-yl)oxy)pyridin-4-yl)methyl)-1,4-oxazepan-7-yl)ethanol], the inhibition at 1 µM with Marburg virus (MARV) amounted to 56.8%; in the experiment on dengue virus (DENV) it was 41.5%; in experiment [10], 14.1%.

Turning to `CC(=O)NCC1CCN(Cc2cc(Oc3cnc(N4CCN(CC(C)(C)O)CC4)nc3)nc(-c3cc(Cl)cc(Cl)c3)c2)CC1` [Example 303, N-((1-((2-(3,5-dichlorophenyl)-6-((2-(4-(2-hydroxy-2-methylpropyl)piperazin-1-yl)pyrimidin-5-yl)oxy)pyridin-4-yl)methyl)piperidin-4-yl)methyl)acetamide], the inhibition at 1 µM in the experiment with Marburg virus (MARV) came to 49.6%; in the experiment with dengue virus (DENV), 34.4%; in experiment [10] it was 33.4%.

With `O=C(O)CCC1CCN(Cc2cc(Oc3cnc(N4CCN(CCO)CC4)nc3)cc(-c3cc(Cl)cc(Cl)c3)c2)CC1` [Example 114, 3-(1-((3′,5′-dichloro-5-((2-(4-(2-hydroxyethyl)piperazin-1-yl)pyrimidin-5-yl)oxy)-[1,1′-biphenyl]-3-yl)methyl)piperidin-4-yl)propanoic acid], the inhibition at 1 µM in the experiment on Marburg virus (MARV) was determined as 74.2%; in the experiment with dengue virus (DENV) it was 38.1%; in [10], 26.6%.
